In patent publication US9695155B2, “Herbicidal substituted pyrimidinyloxy benzene compounds” (E. I. DU PONT DE NEMOURS AND COMPANY, priority 2013, dated 2017):

How the values were obtained:
yellow nutsedge = experiment: Test C postemergence; type: in vivo, Cyperus esculentus; details: for Plant response rating (0 to 100), Nutsedge, Yellow: 0 is no effect, 100 is complete control; for Nutsedge, Yellow plant response rating: 31 g ai/ha; for Nutsedge, Yellow plant response rating / Plant response rating, Nutsedge, Yellow: scale 0 to 100 (0 no effect, 100 complete control)
Summary of the method: (§1)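 Whole-plant greenhouse test with surfactant-containing solvent formulation, applied preemergence to sown loam–sand pots or postemergence to 2–18 cm plants. Scored by eye 13 to 15 days on, 0–100 scale.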

oilseed rape = experiment: Test C postemergence; type: in vivo, Brassica napus; details: for Plant response rating (0 to 100), Oilseed Rape: 0 is no effect, 100 is complete control; for Oilseed Rape plant response rating: 31 g ai/ha; for Oilseed Rape plant response rating / Plant response rating, Oilseed Rape: scale 0 to 100 (0 no effect, 100 complete control)
Summary of the method: as §1

johnsongrass = experiment: Test C postemergence; type: in vivo, Sorghum halepense; details: for Plant response rating (0 to 100), Johnsongrass: 0 is no effect, 100 is complete control; for Johnsongrass plant response rating: 31 g ai/ha; for Johnsongrass plant response rating / Plant response rating, Johnsongrass: scale 0 to 100 (0 no effect, 100 complete control)
Summary of the method: as §1

sedge, umbrella = experiment: Test B flooded paddy test; type: in vivo, Cyperus difformis; details: Flood, 250 g ai/ha; 0 to 100 scale where 0 is no effect and 100 is complete control
Summary of the method: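 Flooded to 3 cm at the 2-leaf stage, pots received compound through the paddy water and were kept at that depth under greenhouse conditions. After 13–15 days, effect was rated by eye relative to controls, 0 = none and 100 = complete control.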

wheat [1] = experiment: Test A postemergence; type: in vivo, Triticum aestivum
Summary of the method: (§2)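 Scoring: eye-based comparison with untreated controls, 0 for no effect through 100 for complete control, at about day 10. Treatments: directed soil spray preemergence; foliar spray postemergence on 2–10 cm plants at the one- to two-leaf stage. Medium: loam soil with sand.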

barnyardgrass [2] = experiment: Test A preemergence; type: in vivo, Echinochloa crus-galli
Summary of the method: as §2

wheat [3] = experiment: Test A preemergence; type: in vivo, Triticum aestivum
Summary of the method: as §2

kochia = experiment: Test C postemergence; type: in vivo, Kochia scoparia; details: for Plant response rating (0 to 100), Kochia: 0 is no effect, 100 is complete control; for Kochia plant response rating: 31 g ai/ha; for Kochia plant response rating / Plant response rating, Kochia: scale 0 to 100 (0 no effect, 100 complete control)
Summary of the method: as §1

barnyardgrass [4] = experiment: Test C postemergence; type: in vivo, Echinochloa crus-galli; details: for Plant response rating (0 to 100), Barnyardgrass: 0 is no effect, 100 is complete control; for Barnyardgrass plant response rating: 31 g ai/ha, 13 to 15 days; for Barnyardgrass plant response rating / Plant response rating, Barnyardgrass: scale 0 to 100 (0 no effect, 100 complete control)
Summary of the method: as §1

morningglory [5] = experiment: Test A postemergence; type: in vivo, Ipomoea spp.
Summary of the method: as §2

blackgrass = experiment: Test C postemergence; type: in vivo, Alopecurus myosuroides; details: for Plant response rating (0 to 100), Blackgrass: 0 is no effect, 100 is complete control; for Blackgrass plant response rating: 31 g ai/ha; for Blackgrass plant response rating / Plant response rating, Blackgrass: scale 0 to 100 (0 no effect, 100 complete control)
Summary of the method: as §1

corn = experiment: Test A preemergence; type: in vivo, Zea mays
Summary of the method: as §2

large (Lg) crabgrass = experiment: Test C postemergence; type: in vivo, Digitaria sanguinalis; details: for Plant response rating (0 to 100), Crabgrass, Large: 0 is no effect, 100 is complete control; for Crabgrass, Large plant response rating: 31 g ai/ha; for Crabgrass, Large plant response rating / Plant response rating, Crabgrass, Large: scale 0 to 100 (0 no effect, 100 complete control)
Summary of the method: as §1

morningglory [6] = experiment: Test A preemergence; type: in vivo, Ipomoea spp.
Summary of the method: as §2

morningglory [7] = experiment: Test C postemergence; type: in vivo, Ipomoea coccinea; details: for Plant response rating (0 to 100), Morningglory: 0 is no effect, 100 is complete control; for Morningglory plant response rating: 31 g ai/ha; for Morningglory plant response rating / Plant response rating, Morningglory: scale 0 to 100 (0 no effect, 100 complete control)
Summary of the method: as §1

[8] = postemergence, visual rating, 13 to 15 days
[9] = 125 g ai/ha, postemergence, visual rating
[10] = Postemergence, 62 g ai/ha, 13 to 15 days
[11] = 125 g ai/ha, 0 to 100 scale where 0 is no effect and 100 is complete control
[12] = 500 g ai/ha, 0 to 100 scale where 0 is no effect and 100 is complete control
[13] = 1000 g ai/ha, 0 to 100 scale, 0 no effect, 100 complete control
[14] = 1000 g ai/ha, 0 to 100 scale, 0 no effect, 100 complete control, approx. 10 days

Structure (SMILES): Clc1cnc(Oc2cccc(Br)c2-n2cc(Cl)cn2)nc1 [Compound 221]
- Plant response rating (0 to 100), Nutsedge, Yellow (yellow nutsedge; 16 g ai/ha, postemergence): 0
- Nutsedge, Yellow plant response rating (yellow nutsedge; [8]): 0
- Plant response rating, Nutsedge, Yellow (yellow nutsedge; [9]): 10
- Plant response rating, Nutsedge, Yellow (yellow nutsedge; [10]): 5
- Plant response rating (0 to 100), Oilseed Rape (oilseed rape; 16 g ai/ha, postemergence): 40
- Oilseed Rape plant response rating (oilseed rape; [8]): 50
- Plant response rating, Oilseed Rape (oilseed rape; [9]): 80
- Plant response rating, Oilseed Rape (oilseed rape; [10]): 60
- Plant response rating (0 to 100), Johnsongrass (johnsongrass; 16 g ai/ha, postemergence): 5
- Johnsongrass plant response rating (johnsongrass; [8]): 5
- Plant response rating, Johnsongrass (johnsongrass; [9]): 20
- Plant response rating, Johnsongrass (johnsongrass; [10]): 5
- Plant response rating, Sedge, Umbrella (sedge, umbrella): 0
- Wheat plant response rating (wheat [1]; [11]): 0
- Plant response rating, Wheat (wheat [1]; [12]): 30
- Barnyardgrass plant response rating (0 to 100 scale, 0 is no effect, 100 is complete control) (barnyardgrass [2]; 125 g ai/ha): 10
- Barnyardgrass plant response rating (barnyardgrass [2]; [12]): 90
- Wheat plant response rating (0 to 100 scale) (wheat [3]; 125 g ai/ha): 0
- Wheat plant response rating (wheat [3]; [12]): 10
- Plant response rating (0 to 100), Kochia (kochia; 16 g ai/ha, postemergence): 90
- Kochia plant response rating (kochia; [8]): 80
- Plant response rating, Kochia (kochia; [9]): 95
- Plant response rating, Kochia (kochia; [10]): 95
- Plant response rating (0 to 100), Barnyardgrass (barnyardgrass [4]; 16 g ai/ha, postemergence): 5
- Barnyardgrass plant response rating (barnyardgrass [4]; postemergence, visual rating): 5
- Plant response rating, Barnyardgrass (barnyardgrass [4]; [9]): 10
- Plant response rating, Barnyardgrass (barnyardgrass [4]; Postemergence, 62 g ai/ha): 5
- Morningglory plant response rating (morningglory [5]; [11]): 90
- Plant response rating, Morningglory (morningglory [5]; [12]): 100
- Plant response rating (0 to 100), Blackgrass (blackgrass; 16 g ai/ha, postemergence): 0
- Blackgrass plant response rating (blackgrass; [8]): 0
- Plant response rating, Blackgrass (blackgrass; [9]): 5
- Plant response rating, Blackgrass (blackgrass; [10]): 5
- Corn plant response rating (0 to 100 scale) (corn; 125 g ai/ha): 0
- Corn plant response rating (corn; [12]): 0
- Plant response rating (0 to 100), Crabgrass, Large (large (Lg) crabgrass; 16 g ai/ha, postemergence): 5
- Crabgrass, Large plant response rating (large (Lg) crabgrass; [8]): 5
- Plant response rating, Crabgrass, Large (large (Lg) crabgrass; [9]): 25
- Plant response rating, Crabgrass, Large (large (Lg) crabgrass; [10]): 5
- Morningglory plant response rating (0 to 100 scale) (morningglory [6]; 125 g ai/ha): 0
- Morningglory plant response rating (morningglory [6]; [12]): 10
- Plant response rating (0 to 100), Morningglory (morningglory [7]; 16 g ai/ha, postemergence): 45
- Morningglory plant response rating (morningglory [7]; [8]): 40
- Plant response rating, Morningglory (morningglory [7]; [9]): 55
- Plant response rating, Morningglory (morningglory [7]; [10]): 50

Structure (SMILES): Clc1cnc(Oc2ccccc2-n2cc(I)nn2)nc1 [Compound 222]
- Plant response rating (0 to 100), Nutsedge, Yellow (yellow nutsedge; 8 g ai/ha, postemergence): 0
- Plant response rating (0 to 100), Nutsedge, Yellow (yellow nutsedge; 16 g ai/ha, postemergence): 5
- Nutsedge, Yellow plant response rating (yellow nutsedge; [8]): 5
- Plant response rating, Nutsedge, Yellow (yellow nutsedge; [10]): 5
- Plant response rating (0 to 100), Oilseed Rape (oilseed rape; 8 g ai/ha, postemergence): 10
- Plant response rating (0 to 100), Oilseed Rape (oilseed rape; 16 g ai/ha, postemergence): 5
- Oilseed Rape plant response rating (oilseed rape; [8]): 10
- Plant response rating, Oilseed Rape (oilseed rape; [10]): 20
- Plant response rating (0 to 100), Johnsongrass (johnsongrass; 8 g ai/ha, postemergence): 0
- Plant response rating (0 to 100), Johnsongrass (johnsongrass; 16 g ai/ha, postemergence): 0
- Johnsongrass plant response rating (johnsongrass; [8]): 10
- Plant response rating, Johnsongrass (johnsongrass; [10]): 10
- Plant response rating, Sedge, Umbrella (sedge, umbrella): 70
- Plant response rating, Wheat (wheat [1]; [13]): 40
- Barnyardgrass plant response rating (barnyardgrass [2]; [14]): 100
- Wheat plant response rating (wheat [3]; [14]): 70
- Plant response rating (0 to 100), Kochia (kochia; 8 g ai/ha, postemergence): 60
- Plant response rating (0 to 100), Kochia (kochia; 16 g ai/ha, postemergence): 85
- Kochia plant response rating (kochia; [8]): 100
- Plant response rating, Kochia (kochia; [10]): 100
- Plant response rating (0 to 100), Barnyardgrass (barnyardgrass [4]; 8 g ai/ha, postemergence): 5
- Plant response rating (0 to 100), Barnyardgrass (barnyardgrass [4]; 16 g ai/ha, postemergence): 5
- Barnyardgrass plant response rating (barnyardgrass [4]; postemergence, visual rating): 10
- Plant response rating, Barnyardgrass (barnyardgrass [4]; Postemergence, 62 g ai/ha): 15
- Plant response rating, Morningglory (morningglory [5]; [13]): 100
- Plant response rating (0 to 100), Blackgrass (blackgrass; 8 g ai/ha, postemergence): 0
- Plant response rating (0 to 100), Blackgrass (blackgrass; 16 g ai/ha, postemergence): 5
- Blackgrass plant response rating (blackgrass; [8]): 30
- Plant response rating, Blackgrass (blackgrass; [10]): 60
- Corn plant response rating (corn; [14]): 60
- Plant response rating (0 to 100), Crabgrass, Large (large (Lg) crabgrass; 8 g ai/ha, postemergence): 5
- Plant response rating (0 to 100), Crabgrass, Large (large (Lg) crabgrass; 16 g ai/ha, postemergence): 5
- Crabgrass, Large plant response rating (large (Lg) crabgrass; [8]): 5
- Plant response rating, Crabgrass, Large (large (Lg) crabgrass; [10]): 5
- Morningglory plant response rating (morningglory [6]; [14]): 100
- Plant response rating (0 to 100), Morningglory (morningglory [7]; 8 g ai/ha, postemergence): 40
- Plant response rating (0 to 100), Morningglory (morningglory [7]; 16 g ai/ha, postemergence): 90
- Morningglory plant response rating (morningglory [7]; [8]): 45
- Plant response rating, Morningglory (morningglory [7]; [10]): 70
